In PMC9940851, “Seleno Containing Compounds as Potent and Selective Antifungal Agents” (ACS Infectious Diseases, 2022):
≈ marks a conversion by molar mass, not a printed value.

What was measured:
MpaCA = target: T1, MpaCA (Malassezia pachydermatis, UniProt A0A0M8MPA4); assay: stopped-flow CO2 hydrase assay; format: biochemical
T1 construct: gene Malapachy_3798
T1 sequence (A0A0M8MPA4 1-242): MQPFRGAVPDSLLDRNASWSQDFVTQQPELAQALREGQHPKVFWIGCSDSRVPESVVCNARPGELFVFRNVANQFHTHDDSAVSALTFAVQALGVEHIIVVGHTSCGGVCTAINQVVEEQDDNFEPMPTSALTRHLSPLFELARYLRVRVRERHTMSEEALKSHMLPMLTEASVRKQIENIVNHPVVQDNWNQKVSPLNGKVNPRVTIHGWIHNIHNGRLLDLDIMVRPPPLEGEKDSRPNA

[1] = test system: T2, M. pachydermatis DSMZ 6172; assay: microbe, parasite or virus in culture; set-up: broth microdilution MIC, M. pachydermatis and Candida, 35 °C; conditions: Malassezia pachydermatis, DSMZ6172
T2 construct: DSMZ 6172 (CDC 16334)
Protocol: (§1) Inoculum preparations for antifungal assays were performed following the CLSI guidelines for antifungal susceptibility testing of yeasts.[31] Antifungal activity was evaluated on unicellular yeasts Candida albicans ATCC 10231, Candida glabrata ATCC 90030 (DSMZ 11226), Malassezia pachydermatis CDC 16334 (DSMZ 6172), Malassezia globosa ATCC MYA 4612, and Malassezia furfur ATCC 14521. All the fungal strains were stored at −80 °C in cryovials. Then Candida spp. and Malassezia pachydermatis were reactivated in RPMI 1640 broth for 24–48 h at 35 °C. The so obtained fresh cultures were streaked onto Sabouraud dextrose agar and incubated for 24–48 h at 35 °C. Malassezia globosa and furfur were reactivated in modified RPMI 1640 broth[32] for 24–48 h at 35 °C (M. furfur) and 33 °C (M. globosa), and then the cultures were streaked onto Leeming and Notman agar (MLNA) and incubated for 48–72 h at 35 °C for M. furfur and at 33 °C for M. globosa. The fungal inoculum for the testing was prepared by suspending in phosphate buffer (PB) 10 mM pH 7 4–5 colonies of about 1 mm diameter. The fungal suspension was then adjusted to a final optical density of 0.5 McFarland standard (1–5 × 10^6 cells/mL). The compound solutions were tested in a range of concentrations from 0.01 μg/mL to 256 μg/mL, and 50 μL were then added in 96 wells microtiter plates with 50 μL of fungal inoculum and incubated for 24–48 h at 35 °C. Growth and sterility controls were performed. […] Compounds 3a, 3c, 5b, 7a–d, 9c, 11e, 11i, and 14a,b were selected as representatives of the chemical moieties synthesized prior to their screen on yeasts of biomedical relevance such as M. pachydermatis DSMZ 6172, C. albicans ATCC 10231, and C. glabrata ATCC 90030 (DSMZ 11226) strains. The clinical used drugs Ketoconazole, SeS2, and Amphotericin B were included as references (Table 1).

C. albicans = assay: microbe, parasite or virus in culture; set-up: broth microdilution MIC, M. pachydermatis and Candida, 35 °C; conditions: Candida albicans
Protocol: as §1

C. glabrata DSMZ 11226 = test system: T3, C. glabrata DSMZ 11226; assay: microbe, parasite or virus in culture; set-up: broth microdilution MIC, M. pachydermatis and Candida, 35 °C; conditions: Nakaseomyces glabratus, DSMZ11226
T3 construct: DSMZ 11226 (ATCC 90030)
Protocol: as §1

M. globosa ATCC MYA 4612 = test system: T4, M. globosa ATCC MYA 4612; assay: microbe, parasite or virus in culture; conditions: Malassezia globosa
T4 construct: ATCC MYA 4612
Protocol: as §1

ATCC M. furfur 14521 = test system: T5, ATCC M. furfur 14521; assay: microbe, parasite or virus in culture; conditions: Malassezia furfur
T5 construct: ATCC 14521
Protocol: as §1

MgCA [2] = target: T6, MgCA (Malassezia globosa, UniProt A8Q1N3); assay: biochemical; set-up: stopped-flow CO2 hydration assay, phenol red absorbance at 557 nm, 15 min preincubation, Cheng-Prusoff KI
T6 construct: gene MGL_1814
T6 sequence (A8Q1N3 1-241): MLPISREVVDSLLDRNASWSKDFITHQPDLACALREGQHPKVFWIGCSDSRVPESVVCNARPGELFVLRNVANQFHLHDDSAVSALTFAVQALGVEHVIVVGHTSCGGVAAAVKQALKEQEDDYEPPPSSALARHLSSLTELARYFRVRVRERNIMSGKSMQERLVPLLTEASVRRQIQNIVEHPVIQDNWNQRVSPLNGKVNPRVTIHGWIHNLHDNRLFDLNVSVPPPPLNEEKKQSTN
Protocol: Enzyme concentrations ranged between 5 and 12 nM. […] The presence of the sulfonamide moiety (i.e., either primary/secondary) within our scaffolds prompted us to investigate whether the compounds listed in this study were endowed with modulation features against the enzymatic metalloenzyme carbonic anhydrases (CAs, EC 4.2.1.1) expressed in Malassezia spp. of interest such as M. pachydermatis (MpaCA), M. globosa (MgCA), and M. restricta (MreCA). […] The obtained activities in Table 3 were all reported as KI values.

MgCA [3] = target: T6, MgCA; assay: stopped-flow CO2 hydrase assay; format: biochemical
Procedure, shortened: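 Stopped-flow recording over 10–100 s followed CO2 hydration (1.7–17 mM CO2) in 20 mM Hepes pH 7.4 plus 20 mM Na2SO4, using 0.2 mM phenol red at 557 nm, after recombinant carbonic anhydrase (5–12 nM) had been preincubated with inhibitor for 15 min at room temperature. Initial rates, corrected for uncatalysed rates, came from at least six traces, and at least three determinations were averaged. Ki was calculated by nonlinear least-squares fitting with the Cheng-Prusoff equation.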

SMILES | Ki (MpaCA) | MIC [1] | MIC (C. albicans) | MIC (C. glabrata DSMZ 11226) | MIC (M. globosa ATCC MYA 4612) | MIC (ATCC M. furfur 14521) | Ki (MgCA [2]) | Ki (MgCA [3])
NS(=O)(=O)c1ccc(NC(=S)Nc2ccccc2F)cc1 [14b] | 0.488 µM | > 256 µg/mL | > 256 µg/mL | > 256 µg/mL | > 256 µg/mL | > 256 µg/mL | 5.49 µM | 
O=C(NC(=[Se])Nc1ccccc1)c1cc(Br)cc(OC(F)(F)F)c1 [16b] | > 10 µM | 1 µg/mL (≈ 2.15 µM) |  |  | 341 ± 148 µg/mL (≈ 732 µM) | 10.7 ± 4.62 µg/mL (≈ 23 µM) | > 10 µM | 
O=C(NC(=[Se])Nc1c(F)c(F)cc(F)c1F)c1ccccc1 [16d] | > 10 µM | 1 µg/mL (≈ 2.67 µM) |  |  | > 256 µg/mL | 2.7 ± 1.15 µg/mL (≈ 7.2 µM) | > 10 µM | 
O=C(Nc1ccccc1)Nc1ccccc1F [14c] | > 10 µM | > 256 µg/mL |  |  | > 256 µg/mL | > 256 µg/mL | > 10 µM | 
NS(=O)(=O)c1ccc(C[Se]c2ccc(NC(=[Se])NC(=O)c3cc(Br)cc(OC(F)(F)F)c3)cc2)cc1 [compound 12, 3-Bromo-N-((4-((4-sulfamoylbenzyl)selanyl)phenyl)carbamoselenoyl)-5-(trifluoromethoxy)benzamide] | 71.6 µM | 6.7 ± 2.3 µg/mL (≈ 9.38 µM) |  |  | 256 µg/mL (≈ 358 µM) | 128 µg/mL (≈ 179 µM) | 1.76 µM | 
Cc1cccc(C(=O)NC(=[Se])Nc2cc(S(N)(=O)=O)ccc2O)c1 [11j] | 14.8 µM | 0.5 µg/mL (≈ 1.21 µM) |  |  | 128 µg/mL (≈ 310 µM) | 16 ± 8.76 µg/mL (≈ 38.8 µM) | 5.64 µM | 
O=C(NC(=[Se])Nc1ccccc1F)c1ccccc1 [16c] | > 10 µM | 1 µg/mL (≈ 3.11 µM) |  |  | 64 µg/mL (≈ 199 µM) | 2 µg/mL (≈ 6.23 µM) | > 10 µM | 
O=C(NC(=[Se])Nc1ccccc1)c1ccccc1 [16a] | > 10 µM | 0.8 ± 0.29 µg/mL (≈ 2.64 µM) |  |  | 29.3 ± 18.7 µg/mL (≈ 96.6 µM) | 0.8 ± 0.6 µg/mL (≈ 2.64 µM) | > 10 µM | 
Fc1ccccc1NC(=S)Nc1ccccc1 [14d] | > 10 µM | > 256 µg/mL |  |  | > 256 µg/mL | 128 µg/mL (≈ 520 µM) | > 10 µM | 
NS(=O)(=O)c1ccc(NC(=[Se])Nc2ccccc2)cc1 [3a] | 0.514 µM | 0.5 µg/mL (≈ 1.41 µM) | 64 µg/mL (≈ 181 µM) | 10.7 µg/mL (≈ 30.2 µM) | 4.3 ± 1.97 µg/mL (≈ 12.1 µM) | 0.5 µg/mL (≈ 1.41 µM) |  | 0.599 µM
NS(=O)(=O)c1ccc(NC(=[Se])NC(=O)c2cc(Br)cc(OC(F)(F)F)c2)cc1 [7c] | 83.5 µM | 0.5 µg/mL (≈ 0.917 µM) | 64 µg/mL (≈ 117 µM) | 8 µg/mL (≈ 14.7 µM) | 128 µg/mL (≈ 235 µM) | 4 µg/mL (≈ 7.34 µM) |  | 4.3 µM
NS(=O)(=O)c1ccc(O)c(NC(=[Se])NC(=O)c2cc(Br)cc(OC(F)(F)F)c2)c1 [11i] | 12.7 µM | 0.5 µg/mL (≈ 0.891 µM) | 64 µg/mL (≈ 114 µM) | 32 µg/mL (≈ 57 µM) | 64 µg/mL (≈ 114 µM) | 5 ± 2.45 µg/mL (≈ 8.91 µM) | 6.25 µM | 
NS(=O)(=O)c1ccc(NC(=O)Nc2ccccc2F)cc1 [14a] | 0.845 µM | > 256 µg/mL | > 256 µg/mL | > 256 µg/mL | > 256 µg/mL | > 256 µg/mL | 6.74 µM | 
